Here are results for 15 molecules from patent US7071180B2, “Certain arylaliphatic and heteroaryl-aliphatic piperazinyl pyrazines and their use in the treatment of serotonin-related diseases” (Biovitrum AB, priority 1999, dated 2006).

Structures can show the parent of a compound that is named as a salt.

As a reminder, the melting point is the temperature, or range, at which the solid turns liquid. Consider `Nc1nc2c(OCCOc3nccnc3N3CCNCC3)cccc2o1` (as salt: fumarate) [Example 21, 4-(2-{[3-(1-piperazinyl)-2-pyrazinyl]oxy}ethoxy)-1,3-benzoxazol-2-amine], for which the melting point was in the range of 138 to 140 °C.

`CN(CCOc1ccccc1)c1nccnc1N1CCNCC1` (as salt: fumarate) [Example 47, N-Methyl-N-(2-phenoxyethyl)-3-(1-piperazinyl)-2-pyrazinamine]: the melting point worked out at 154 °C.

Consider `COc1ccc(F)cc1OCCOc1nccnc1N1CCNCC1` (as salt: fumarate) [Example 100, 2-[2-(5-Fluoro-2-methoxyphenoxy)ethoxy]-3-(1-piperazinyl)pyrazine], for which the melting point was 172 to 176 °C.

In the case of `Fc1cccc(OCCOc2nccnc2N2CCNCC2)c1F` (as salt: fumarate) [Example 105, 2-[2-(2,3-Difluorophenoxy)ethoxy]-3-(1-piperazinyl)pyrazine], the melting point fell in the range of 125 to 130 °C.

With `Fc1cc(F)c(F)c(OCCOc2nccnc2N2CCNCC2)c1` (as salt: fumarate) [Example 106, 2-[2-(2,3,5-Trifluorophenoxy)ethoxy]-3-(1-piperazinyl)pyrazine], the melting point lay in the range of 158 to 159 °C.

In turn, `c1ccc(Nc2cccc(OCCOc3nccnc3N3CCNCC3)c2)cc1` (as salt: fumarate) [Example 107, N-Phenyl-3-(2-{[3-(1-piperazinyl)-2-pyrazinyl]oxy}ethoxy)aniline] returned a melting point of 78 to 81 °C.

`c1ccc2c(c1)OC(COc1nccnc1N1CCNCC1)CS2` (stereo not drawn) (as salt: fumarate) [Example 132, 2-(2,3-Dihydro-1,4-benzoxathiin-2-ylmethoxy)-3-(1-piperazinyl)pyrazine] registered a melting point of 178 to 179 °C.

`Cc1ccc(OCCOc2nccnc2N2CCNC[C@H]2C)cn1` (as salt: fumarate) [Example 176, (2R)-2-Methyl-1-(3-{2-[(6-methyl-3-pyridinyl)oxy]ethoxy}-2-pyrazinyl)piperazine]: the melting point is 115 °C (dec.).

`CCC1CNCCN1c1nccnc1OCCOc1cccnc1` (stereo not drawn) (as salt: fumarate) [Example 178, 2-Ethyl-1-{3-[2-(3-pyridinyloxy)ethoxy]-2-pyrazinyl}piperazine] gave a melting point of 125 to 127 °C.

Turning to `C[C@@H]1CNC[C@H](C)N1c1nccnc1OCCOc1cccnc1` (as salt: fumarate) [Example 179, cis-2,6-Dimethyl-1-{3-[2-(3-pyridinyloxy)ethoxy]-2-pyrazinyl}piperazine], the melting point was 157 °C (dec.).

The molecule `Brc1ncccc1OCCOc1nccnc1N1CCNCC1` (as salt: fumarate) [Example 195, 2-{2-[(2-Bromo-3-pyridinyl)oxy]ethoxy}-3-(1-piperazinyl)pyrazine] had a melting point of 202 °C.

Molecule `C[C@@H]1CNCCN1c1nccnc1OCCOc1cccnc1Br` (as salt: fumarate) [Example 196, (2R)-1-(3-{2-[(2-Bromo-3-pyridinyl)oxy]ethoxy}-2-pyrazinyl)-2-methylpiperazine] came in with a melting point of 154 °C.

`CSc1ncccc1OCCOc1nccnc1N1CCNCC1` (as salt: fumarate) [Example 197, 2-(2-{[2-(Methylsulfanyl)-3-pyridinyl]oxy}ethoxy)-3-(1-piperazinyl)pyrazine] came in with a melting point of 201 °C.

`CSc1ncccc1OCCOc1nccnc1N1CCNC[C@H]1C` (as salt: fumarate) [Example 198, (2R)-2-Methyl-1-[3-(2-{[2-(methylsulfanyl)-3-pyridinyl]oxy}ethoxy)-2-pyrazinyl]piperazine] showed a melting point of 179 °C.

`CCOc1ncccc1OCCOc1nccnc1N1CCNCC1` (as salt: fumarate) [Example 199, 2-{2-[(2-Ethoxy-3-pyridinyl)oxy]ethoxy}-3-(1-piperazinyl)pyrazine] displayed a melting point of 186 °C.
